Assay results taken from patent publication US20230113037A1 (Bayer Aktiengesellschaft, priority 2019, published 2023).
Where two headings read alike, the source gives them in different places.

Columns and labels:
AHR [1] = biological target: T1, AHR (Mus musculus, UniProt P30561); experiment: In vitro assay 3: antagonism in mouse cell line (AHR transactivation, firefly luciferase reporter, kynurenic acid prestimulated); type: cell-based
T1 sequence (P30561 1-848 P471L/N533S/M589L): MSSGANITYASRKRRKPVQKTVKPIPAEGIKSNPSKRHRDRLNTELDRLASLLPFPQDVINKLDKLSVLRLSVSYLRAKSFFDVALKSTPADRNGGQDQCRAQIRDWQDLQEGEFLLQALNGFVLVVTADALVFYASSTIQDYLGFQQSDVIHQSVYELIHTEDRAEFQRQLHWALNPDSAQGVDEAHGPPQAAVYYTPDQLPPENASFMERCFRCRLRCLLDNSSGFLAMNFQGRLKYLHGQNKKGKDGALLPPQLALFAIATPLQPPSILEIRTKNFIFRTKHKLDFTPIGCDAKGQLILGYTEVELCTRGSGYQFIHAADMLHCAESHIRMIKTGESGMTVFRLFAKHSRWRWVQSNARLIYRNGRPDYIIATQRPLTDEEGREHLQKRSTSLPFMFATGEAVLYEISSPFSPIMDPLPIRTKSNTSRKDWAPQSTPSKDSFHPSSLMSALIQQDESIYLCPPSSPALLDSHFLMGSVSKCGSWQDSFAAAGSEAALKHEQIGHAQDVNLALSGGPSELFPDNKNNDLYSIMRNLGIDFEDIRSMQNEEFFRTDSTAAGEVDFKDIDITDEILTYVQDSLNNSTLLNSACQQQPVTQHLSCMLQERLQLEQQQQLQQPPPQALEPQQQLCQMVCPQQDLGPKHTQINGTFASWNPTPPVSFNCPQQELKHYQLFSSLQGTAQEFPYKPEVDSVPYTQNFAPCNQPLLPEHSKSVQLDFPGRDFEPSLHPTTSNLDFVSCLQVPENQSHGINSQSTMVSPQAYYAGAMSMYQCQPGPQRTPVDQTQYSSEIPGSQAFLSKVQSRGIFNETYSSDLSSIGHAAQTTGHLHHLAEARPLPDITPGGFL
Summary of the method: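 Mouse cells stably carrying a DRE-driven AHR-inducible firefly luciferase reporter were prestimulated with the endogenous agonist kynurenic acid before compound addition. Luciferase read by SteadyGlo; cells without kynurenic acid served as full-inhibition control, with normalization to positive and negative controls. Repeat tests reported as mean or median.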

AHR [2] = biological target: T2, AHR (Homo sapiens, UniProt P35869); experiment: In vitro assay 1: antagonism in human cell line (AHR transactivation, firefly luciferase reporter, kynurenic acid prestimulated); type: cell-based; conditions: AHR Antagonism Human IC50 [M]
T2 construct: U87 MG glioblastoma cells (ATCC #HTB-14) endogenously expressing AHR; endogenous in cells; host or cells: U87 MG glioblastoma cells (ATCC #HTB-14)
T2 sequence (P35869 11-848): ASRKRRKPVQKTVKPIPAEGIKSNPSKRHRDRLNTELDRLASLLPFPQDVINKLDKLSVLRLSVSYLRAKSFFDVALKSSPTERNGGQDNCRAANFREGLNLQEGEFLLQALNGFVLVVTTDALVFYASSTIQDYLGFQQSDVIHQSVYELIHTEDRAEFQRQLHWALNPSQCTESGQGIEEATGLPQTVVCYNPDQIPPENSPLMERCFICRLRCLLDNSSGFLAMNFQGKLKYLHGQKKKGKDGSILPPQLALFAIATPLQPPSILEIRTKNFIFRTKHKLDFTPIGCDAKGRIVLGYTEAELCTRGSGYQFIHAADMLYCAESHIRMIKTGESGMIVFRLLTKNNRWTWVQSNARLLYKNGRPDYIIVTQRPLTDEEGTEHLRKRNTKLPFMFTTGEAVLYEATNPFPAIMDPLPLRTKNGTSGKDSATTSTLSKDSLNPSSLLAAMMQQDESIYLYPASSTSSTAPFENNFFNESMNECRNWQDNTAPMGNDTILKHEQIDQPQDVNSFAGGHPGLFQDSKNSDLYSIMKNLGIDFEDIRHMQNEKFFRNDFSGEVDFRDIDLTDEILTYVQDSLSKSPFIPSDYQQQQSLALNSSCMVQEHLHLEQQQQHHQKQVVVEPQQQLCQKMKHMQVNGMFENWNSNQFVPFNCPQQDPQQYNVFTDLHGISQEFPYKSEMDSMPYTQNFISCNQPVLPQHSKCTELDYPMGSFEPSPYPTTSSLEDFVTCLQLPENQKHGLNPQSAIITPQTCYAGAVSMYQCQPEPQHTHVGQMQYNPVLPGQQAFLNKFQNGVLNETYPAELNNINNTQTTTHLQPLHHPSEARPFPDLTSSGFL
Summary of the method: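 U87 MG + DRE-firefly/constitutive-Renilla stable reporters; kynurenic acid prestim; dual-luc read; Renilla = tox; normalized vs pos/neg controls (pos: 150 μM KYNA + 5 μM staurosporine).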

[3] = mouse Hepa 1c1c7 cells, 200 μM kynurenic acid, 20 hours, read-out: AHR Antagonism Mouse IC50
[4] = read-out: AHR Antagonism Mouse IC50, mouse Hepa 1c1c7 cells, 200 μM kynurenic acid, 20 hours

| SMILES | IC50 (AHR [1]; [3]) [nM] | IC50 (AHR [2]) [M] | IC50 (AHR [1]; [4]) [nM] |
| --- | --- | --- | --- |
| Cn1cc(-c2nc3c4c(Br)cccc4nc(N[C@@H]4CCCCNC4=O)n3n2)cn1 [Example 165, (3R)-3-{[10-bromo-2-(1-methyl-1H-pyrazol-4-yl)[1,2,4]triazolo[1,5-c]quinazolin-5-yl]amino}azepan-2-one] | 98.6 | 1.65e-08 |  |
| Cn1cc(-c2nc3c4c(Cl)cccc4nc(N[C@@H]4CCCCNC4=O)n3n2)cn1 [Example 169, (3R)-3-{[10-chloro-2-(1-methyl-1H-pyrazol-4-yl)[1,2,4]triazolo[1,5-c]quinazolin-5-yl]amino}azepan-2-one] |  | 7.27e-09 | 118 |
| Cn1cc(-c2nc3c4c(C(F)(F)F)cccc4nc(N[C@@H]4CCCCNC4=O)n3n2)cn1 [Example 173, (3R)-3-{[2-(1-methyl-1H-pyrazol-4-yl)-10-(trifluoromethyl)[1,2,4]triazolo[1,5-c]quinazolin-5-yl]amino}azepan-2-one] | 112 | 7.21e-08 |  |
| COc1cccc(-c2nc3c4c(C)cccc4nc(NC4CCNC4=O)n3n2)c1 (stereo not drawn) [Example 179, 3-{[2-(3-methoxyphenyl)-10-methyl[1,2,4]triazolo[1,5-c]quinazolin-5-yl]amino}pyrrolidin-2-one] |  | 1.01e-07 | 246 |
| Cc1cccc2nc(N[C@@H]3CCCCNC3=O)n3nc(-c4cnn(C)c4)nc3c12 [Example 183, (3R)-3-{[10-methyl-2-(1-methyl-1H-pyrazol-4-yl)[1,2,4]triazolo[1,5-c]quinazolin-5-yl]amino}azepan-2-one] | 453 | 2.48e-08 |  |
| O=C1NCCCC[C@H]1Nc1nc2c(Cl)cccc2c2nc(-c3ccncc3)nn12 [Example 193, (3R)-3-{[7-Chloro-2-(pyridin-4-yl)[1,2,4]triazolo[1,5-c]quinazolin-5-yl]amino}azepan-2-one] | 87.2 | 2.05e-08 |  |
| Cn1cc(-c2nc3c4cccc(Cl)c4nc(N[C@@H]4CCCCNC4=O)n3n2)cn1 [Example 194, (3R)-3-{[7-Chloro-2-(1-methyl-1H-pyrazol-4-yl)[1,2,4]triazolo[1,5-c]quinazolin-5-yl]amino}azepan-2-one] | 3.83 | 1.17e-09 |  |
| CC(C)n1cc(-c2nc3c4ccccc4nc(N[C@@H]4CCCCNC4=O)n3n2)cn1 [Example 195, (3R)-3-({2-[1-(propan-2-yl)-1H-pyrazol-4-yl][1,2,4]triazolo[1,5-c]quinazolin-5-yl]amino)azepan-2-one] | 2.55 | 3.06e-09 |  |
| O=C1NCCCC[C@H]1Nc1nc2ccccc2c2nc(-c3cccc(Cl)c3Cl)nn12 [Example 196, (3R)-3-{[2-(2,3-dichlorophenyl)[1,2,4]triazolo[1,5-c]quinazolin-5-yl]amino}azepan-2-one] | 1.11 | 4.09e-09 |  |
| Cc1nnc(-c2nc3c4ccccc4nc(N[C@@H]4CCCCNC4=O)n3n2)o1 [Example 199, (3R)-3-{[2-(5-methyl-1,3,4-oxadiazol-2-yl)[1,2,4]triazolo[1,5-c]quinazolin-5-yl]amino}azepan-2-one] | 114 | 5.37e-07 |  |
| O=C1NCCCC[C@H]1Nc1nc2ccccc2c2nc(-c3ccc(Br)cc3Cl)nn12 [Example 200, (3R)-3-{[2-(4-bromo-2-chlorophenyl)[1,2,4]triazolo[1,5-c]quinazolin-5-yl]amino}azepan-2-one] | > 20000 | 2.87e-09 |  |

Now from value to compound, other results behind:

| IC50 (AHR [1]; [3]) [nM] | IC50 (AHR [2]) [M] | SMILES | IC50 (AHR [1]; [4]) [nM] |
| --- | --- | --- | --- |
| 4.54 | 2.44e-09 | COc1ccc(-c2nc3c4c(Br)cccc4nc(N[C@@H]4CCCCNC4=O)n3n2)cc1 [Example 164] |  |
| 2.21 | 9.09e-10 | COc1ccc(-c2nc3c4c(Cl)cccc4nc(N[C@@H]4CCCCNC4=O)n3n2)cc1 [Example 168, (3R)-3-{[10-chloro-2-(4-methoxyphenyl)[1,2,4]triazolo[1,5-c]quinazolin-5-yl]amino}azepan-2-one] |  |
| 12 | 1.29e-08 | COc1ccc(-c2nc3c4c(C(F)(F)F)cccc4nc(N[C@@H]4CCCCNC4=O)n3n2)cc1 [Example 172, (3R)-3-{[2-(4-methoxyphenyl)-10-(trifluoromethyl)[1,2,4]triazolo[1,5-c]quinazolin-5-yl]amino}azepan-2-one] |  |
| 4.04 | 2.26e-08 | O=C1NCCCC[C@H]1Nc1nc2cccc(C(F)(F)F)c2c2nc(-c3ccc(F)cc3)nn12 [Example 174, (3R)-3-{[2-(4-fluorophenyl)-10-(trifluoromethyl)[1,2,4]triazolo[1,5-c]quinazolin-5-yl]amino}azepan-2-one] |  |
| 22.3 | 3.24e-08 | O=C1NCCCC[C@H]1Nc1nc2cccc(C3CC3)c2c2nc(-c3cccc(F)c3)nn12 [Example 175, (3R)-3-{[10-cyclopropyl-2-(3-fluorophenyl)[1,2,4]triazolo[1,5-c]quinazolin-5-yl]amino}azepan-2-one] |  |
| 6.55 | 6.81e-09 | COc1ccc(-c2nc3c4c(C5CC5)cccc4nc(N[C@@H]4CCCCNC4=O)n3n2)cc1 [Example 176, (3R)-3-{[10-cyclopropyl-2-(4-methoxyphenyl)[1,2,4]triazolo[1,5-c]quinazolin-5-yl]amino}azepan-2-one] |  |
| 2.34 | 3.98e-09 | COc1cccc(-c2nc3c4c(C)cccc4nc(N[C@@H]4CCCCNC4=O)n3n2)c1 [Example 178, (3R)-3-{[2-(3-methoxyphenyl)-10-methyl[1,2,4]triazolo[1,5-c]quinazolin-5-yl]amino}azepan-2-one] |  |
| 253 | 1.27e-07 | COc1cccc(-c2nc3c4c(C)cccc4nc(NC4CCCNC4=O)n3n2)c1 (stereo not drawn) [Example 180, 3-{[2-(3-methoxyphenyl)-10-methyl[1,2,4]triazolo[1,5-c]quinazolin-5-yl]amino}piperidin-2-one] |  |
| 25.7 | 3.37e-07 | COc1cccc(-c2nc3c4c(C)cccc4nc(N[C@H]4CCCCNC4=O)n3n2)c1 [Example 181, (3S)-3-{[2-(3-methoxyphenyl)-10-methyl[1,2,4]triazolo[1,5-c]quinazolin-5-yl]amino}azepan-2-one] |  |
| 1020 | 2.54e-07 | COc1cccc(-c2nc3c4c(C)cccc4nc(N[C@H]4CCCNC4=O)n3n2)c1 [Example 182, (3S)-3-{[2-(3-methoxyphenyl)-10-methyl[1,2,4]triazolo[1,5-c]quinazolin-5-yl]amino}piperidin-2-one] |  |
| 62.8 | 9.66e-09 | COc1cccc(-c2nc3c4c(F)cccc4nc(N[C@H](C)C(N)=O)n3n2)c1 [Example 184, N^2-[10-fluoro-2-(3-methoxyphenyl)[1,2,4]triazolo[1,5-c]quinazolin-5-yl]-D-alaninamide] |  |
| 9.84 | 1.05e-08 | COc1cccc(-c2nc3c4c(F)cccc4nc(N[C@@H]4CCCCNC4=O)n3n2)c1 [Example 185] |  |
| 1.82 | 4.23e-09 | O=C1NCCCC[C@H]1Nc1nc2ccccc2c2nc(-c3cc(F)ccc3F)nn12 [Example 197, (3R)-3-{[2-(2,5-difluorophenyl)[1,2,4]triazolo[1,5-c]quinazolin-5-yl]amino}azepan-2-one] |  |
